Laboratory results: patent US12115152B2, “Pan-RAF kinase inhibitor and use thereof” (HEFEI INSTITUTES OF PHYSICAL SCIENCE, CHINESE ACADEMY OF …, priority 2019, dated 2024)
“And” between values parts separate entries of the source, which are not always exact repeats. Identical values can stand only once. Like-named read-outs stand apart in the source and are kept apart here.

How the values were obtained:
[1] = Pharmacokinetic parameters in rats; format: in vivo, SD rats; conditions: rat
Procedure: In the example, SD rats (180-220 g, male) (purchased from Experimental Animal Center of Anhui Medical University, China) were used. The animals were kept in cages ventilated independently with 6 rats per cage. The feeding was performed at a temperature of 20˜26° C. and a humidity of 35-75%. The light condition was 12 hours of lighting/12 hours of darkness. The corncob bedding was refreshed once a week. The rats were fed with foods and drinking water on an ad libitum basis. The rats were marked with a number on the tails. During the experiment, the breeding and use of animals strictly follow the regulations of Association for Assessment and Accreditation of Laboratory Animal Care International.
Solutions of Compound 16 and Comparative Compound 1 were prepared as follows. 10 mg of the compound to be tested was precisely weighed into a sterile vial, and was dissolved with a small amount of DMSO, and then was made to a constant volume of 5 ml with 5% glucose solution, to give a gavage test solution at a concentration of 2 mg/mL. 0.5 ml of the above gavage test solution at a concentration of 2 mg/mL was precisely taken, and was made to constant volume of 5 ml with 4.5 ml of 5% glucose solution, to give an intravenous injection test solution at a concentration of 0.2 mg/mL. The solution was prepared immediately before being used in the experiment.
6 SD rats were randomly divided into two groups, and the synthesized compounds were administered by gavage and tail vein injection, respectively. About 0.3 mL of blood samples were collected from the retro-orbital venous plexus at 0 h before administration and at 5 min, 15 min, 30 min, 1 h, 1.5 h, 2 h, 4 h, 6 h, 9 h, 12 h, 24 h after administration for the gavage group; and at 0 h before administration and at 2 min, 5 min, 15 min, 30 min, 1 h, 2 h, 4 h, 6 h, 9 h, and 12 h after administration for the tail vein group. Each of the collected blood samples was put in a 1.5 mL centrifuge tube with heparin (Sigma, USA). The sample was centrifuged at 6000 rpm for 3 min to separate the plasma. 100 μL of plasma in the upper layer was placed into a new 1.5 mL centrifuge tube, and stored at −80° C. for determination. 10 mg of a standard for the compound to be tested was precisely weighed into a 10 mL volumetric flask, and was dissolved by adding methanol to make a constant volume and mixed uniformly, to give a 1 mg/mL stock solution. The stock solution was then diluted gradually with methanol to give a series of working solutions at concentrations of 0.01, 0.02, 0.05, 0.1, 0.2, 0.5, 1, 2, 5, 10, 20 μg/mL. The working solutions were placed in a refrigerator at 4° C. for later use. 11 centrifuge tubes were used. 10 μL of the above working solutions was respectively added to each of the centrifuge tubes, and then 90 μL of blank rat plasma was respectively added therein. The mixtures were mixed uniformly, so that the concentration of the compound in the rat plasma was 1, 2, 5, 10, 20, 50, 100, 200, 500, 1000, 2000 ng/mL. Then, 20 μL of a solution of caffeine as the internal standard (200 ng/mL) (National Institutes for Food and Drug Control, China) was added therein, and the resultant mixtures were vortexed for 10 s. Next, 400 μL of methanol was added. The resultant mixtures were vortexed for 10 min, and centrifuged at 16000 rpm for 5 min. Thereafter, 70 μL of the supernatant was placed into the inserted pipe of a sampling bottle. 5 μL of the sample was introduced for a LC-MS/MS analysis. A standard curve of the compound in the rat plasma was obtained by means of a linear regression performed by taking the ratio of the peak area of the sample to that of the internal standard As/Ais as the vertical ordinate, taking the concentration C (μg/mL) as the horizontal ordinate, and taking 1/C^2 was taken as a weighting coefficient.
To 100 μL of the rat plasma to be tested stored at −80° C., 20 μL of a caffeine solution (200 ng/mL) as the internal standard was added. The resultant mixture was vortexed for 10 s. […]

[2] = tested on: Calu-6 transplanted tumor nude mice; assay: Toxicity in Calu-6 cell transplanted tumor mouse model; conditions: Calu-6 cell transplanted tumor model, oral daily; Compound 16 50, 100, 200 mg/kg; Comparative Compound 1 100 mg/kg
[3] = male, Sprague-Dawley, plasma, iv, 1 mg/kg, intravenous injection 1 mg/kg, average n=3
[4] = male, Sprague-Dawley, plasma, iv, 1 mg/kg, intravenous injection 1 mg/kg, individual rats #1-#3
[5] = intravenous injection 1 mg/kg, average n=3
[6] = intravenous injection 1 mg/kg, individual rats #1-#3, 1 mg/kg
[7] = oral administration (gavage) 10 mg/kg, average n=3
[8] = oral administration (gavage) 10 mg/kg, individual rats #1-#3, 10 mg/kg

Cc1ccc(NC(=O)c2cccc(C(F)(F)F)c2)cc1-n1cc(-c2cncc(N3CCOCC3)c2)cn1 [Example 16, N-(4-methyl-3-(4-(5-morpholinopyrid-3-yl)-1H-pyrazol-1-yl)phenyl)-3-(trifluoromethyl)benzamide]
AUC(0-inf) ([1]; male, SD, plasma, po, 10 mg/kg, oral administration (gavage) 10 mg/kg, average n=3): 11000 ng·h/mL | Tmax ([1]; male, SD, plasma, po, 10 mg/kg, oral administration (gavage) 10 mg/kg, average n=3, read-out: Tmax): 0.67 h | half-life ([1]; male, SD, plasma, po, 10 mg/kg, oral administration (gavage) 10 mg/kg, average n=3, read-out: T½ (converted)): 3.02 h | AUC(0-inf) ([1]; male, SD, plasma, po, 10 mg/kg, oral administration (gavage) 10 mg/kg, individual rats #1-#3): 13500 ng·h/mL | AUC0-t ([1]; male, SD, plasma, po, 10 mg/kg, oral administration (gavage) 10 mg/kg, individual rats #1-#3, read-out: AUC0-t): 13400 ng·h/mL | Tmax ([1]; male, SD, plasma, po, 10 mg/kg, oral administration (gavage) 10 mg/kg, individual rats #1-#3, read-out: Tmax): 0.5 h | half-life ([1]; male, SD, plasma, po, 10 mg/kg, oral administration (gavage) 10 mg/kg, individual rats #1-#3, read-out: T½ (converted)): 3.19 h | AUC(0-inf) [1, 3]: 765 ng·h/mL | clearance [1, 3]: 21.9 mL/min/kg | AUC0-t ([1]; male, Sprague-Dawley, plasma, iv, 1 mg/kg, intravenous injection 1 mg/kg, average n=3, read-out: AUC0-t): 742 ng·h/mL | C0 ([1]; male, Sprague-Dawley, plasma, iv, 1 mg/kg, intravenous injection 1 mg/kg, average n=3, read-out: C0): 1120 ng/mL | Cmax ([1]; male, Sprague-Dawley, plasma, iv, 1 mg/kg, intravenous injection 1 mg/kg, average n=3, read-out: Cmax): 914 ng/mL | MRT last ([1]; male, Sprague-Dawley, plasma, iv, 1 mg/kg, intravenous injection 1 mg/kg, average n=3, read-out: MRT0-t): 1.89 h | MRT inf ([1]; male, Sprague-Dawley, plasma, iv, 1 mg/kg, intravenous injection 1 mg/kg, average n=3, read-out: MRT0-∞): 2.33 h | Tmax ([1]; male, Sprague-Dawley, plasma, iv, 1 mg/kg, intravenous injection 1 mg/kg, average n=3, read-out: Tmax): 0.033 h | half-life ([1]; male, Sprague-Dawley, plasma, iv, 1 mg/kg, intravenous injection 1 mg/kg, average n=3, read-out: T½ (converted)): 3.01 h | Vd ([1]; male, Sprague-Dawley, plasma, iv, 1 mg/kg, intravenous injection 1 mg/kg, average n=3, read-out: Vz): 5.66 L/kg | AUC(0-inf) [1, 4]: 861 ng·h/mL | clearance [1, 4]: 19.4 mL/min/kg | AUC0-t ([1]; male, Sprague-Dawley, plasma, iv, 1 mg/kg, intravenous injection 1 mg/kg, individual rats #1-#3, read-out: AUC0-t): 822 ng·h/mL | C0 ([1]; male, Sprague-Dawley, plasma, iv, 1 mg/kg, intravenous injection 1 mg/kg, individual rats #1-#3, read-out: C0): 1310 ng/mL | Cmax ([1]; male, Sprague-Dawley, plasma, iv, 1 mg/kg, intravenous injection 1 mg/kg, individual rats #1-#3, read-out: Cmax): 1020 ng/mL | MRT last ([1]; male, Sprague-Dawley, plasma, iv, 1 mg/kg, intravenous injection 1 mg/kg, individual rats #1-#3, read-out: MRT0-t): 2.08 h | MRT inf ([1]; male, Sprague-Dawley, plasma, iv, 1 mg/kg, intravenous injection 1 mg/kg, individual rats #1-#3, read-out: MRT0-∞): 2.75 h | Tmax ([1]; male, Sprague-Dawley, plasma, iv, 1 mg/kg, intravenous injection 1 mg/kg, individual rats #1-#3, read-out: Tmax): 0.033 h | half-life ([1]; male, Sprague-Dawley, plasma, iv, 1 mg/kg, intravenous injection 1 mg/kg, individual rats #1-#3, read-out: T½ (converted)): 3.59 h | Vd ([1]; male, Sprague-Dawley, plasma, iv, 1 mg/kg, intravenous injection 1 mg/kg, individual rats #1-#3, read-out: Vz): 6.01 L/kg | bioavailability ([1]; male, Sprague-Dawley, plasma, oral, 10 mg/kg, oral administration (gavage) 10 mg/kg vs intravenous 1 mg/kg, average n=3, read-out: F (oral bioavailability)): 144% | AUC0-t ([1]; male, Sprague-Dawley, plasma, po, 10 mg/kg, oral administration (gavage) 10 mg/kg, average n=3, read-out: AUC0-t): 10900 ng·h/mL | Cmax ([1]; male, Sprague-Dawley, plasma, po, 10 mg/kg, oral administration (gavage) 10 mg/kg, average n=3, read-out: Cmax): 1480 ng/mL | MRT last ([1]; male, Sprague-Dawley, plasma, po, 10 mg/kg, oral administration (gavage) 10 mg/kg, average n=3, read-out: MRT0-t): 6.62 h | MRT inf ([1]; male, Sprague-Dawley, plasma, po, 10 mg/kg, oral administration (gavage) 10 mg/kg, average n=3, read-out: MRT0-∞): 6.81 h | MRT last ([1]; male, Sprague-Dawley, plasma, po, 10 mg/kg, oral administration (gavage) 10 mg/kg, individual rats #1-#3, read-out: MRT0-t): 5.99 h | MRT inf ([1]; male, Sprague-Dawley, plasma, po, 10 mg/kg, oral administration (gavage) 10 mg/kg, individual rats #1-#3, read-out: MRT0-∞): 6.19 h | AUMC0-t [1, 5]: 1413 hr*hr*ng/ml | AUMC0-∞ [1, 5]: 1805 hr*hr*ng/ml | AUC0-t [1, 6]: 680 ng·h/mL and 723 ng·h/mL | AUC0-∞ [1, 6]: 694 ng·h/mL and 742 ng·h/mL | AUMC0-t [1, 6]: 1708 hr*hr*ng/ml and 1207 hr*hr*ng/ml and 1326 hr*hr*ng/ml | AUMC0-∞ [1, 6]: 2368 hr*hr*ng/ml and 1418 hr*hr*ng/ml and 1630 hr*hr*ng/ml | C0 [1, 6]: 933 ng/mL and 1116 ng/mL | Cl [1, 6]: 24.03 mL/min/kg and 22.47 mL/min/kg | Cmax [1, 6]: 796 ng/mL and 925 ng/mL | MRT0-t [1, 6]: 1.77 h and 1.83 h | MRT0-∞ [1, 6]: 2.04 h and 2.20 h | T½ [1, 6]: 2.62 h and 2.84 h | Vz [1, 6]: 5.441 L/kg and 5.521 L/kg | F (oral bioavailability) ([1]; oral administration (gavage) 10 mg/kg vs intravenous 1 mg/kg, individual rats #1-#3): 176.1% and 157.7% and 98.3% | AUMC0-t [1, 7]: 70219 hr*hr*ng/ml | AUMC0-∞ [1, 7]: 72777 hr*hr*ng/ml | Cl [1, 7]: 16.1 mL/min/kg | Vz [1, 7]: 4.204 L/kg | AUC0-t [1, 8]: 11999 ng·h/mL and 7435 ng·h/mL | AUC0-∞ [1, 8]: 12067 ng·h/mL and 7520 ng·h/mL | AUMC0-t [1, 8]: 80004 hr*hr*ng/ml and 72172 hr*hr*ng/ml and 58480 hr*hr*ng/ml | AUMC0-∞ [1, 8]: 83364 hr*hr*ng/ml and 74076 hr*hr*ng/ml and 60891 hr*hr*ng/ml | Cl [1, 8]: 12.4 mL/min/kg and 13.8 mL/min/kg and 22.17 mL/min/kg | Cmax [1, 8]: 2090 ng/mL and 1710 ng/mL and 645 ng/mL | MRT0-t [1, 8]: 6.01 h and 7.87 h | MRT0-∞ [1, 8]: 6.14 h and 8.10 h | Tmax [1, 8]: 1 h | T½ [1, 8]: 2.86 h and 3.01 h | Vz [1, 8]: 3.418 L/kg and 3.42 L/kg and 5.773 L/kg | toxicity [2]: did not exhibit any toxicity
